Data on twelve compounds can be found in patent US11739098B2 (BRISTOL-MYERS SQUIBB COMPANY, priority 2017, dated 2023).

Common to all, as to format: cell-based
The target in test [1] is T1, human TLR7 (Homo sapiens, UniProt Q9NYK1).
T1 construct: host or cells: HEK-Blue cells (HEK293-derived reporter line)
T1 sequence (Q9NYK1 27-1049): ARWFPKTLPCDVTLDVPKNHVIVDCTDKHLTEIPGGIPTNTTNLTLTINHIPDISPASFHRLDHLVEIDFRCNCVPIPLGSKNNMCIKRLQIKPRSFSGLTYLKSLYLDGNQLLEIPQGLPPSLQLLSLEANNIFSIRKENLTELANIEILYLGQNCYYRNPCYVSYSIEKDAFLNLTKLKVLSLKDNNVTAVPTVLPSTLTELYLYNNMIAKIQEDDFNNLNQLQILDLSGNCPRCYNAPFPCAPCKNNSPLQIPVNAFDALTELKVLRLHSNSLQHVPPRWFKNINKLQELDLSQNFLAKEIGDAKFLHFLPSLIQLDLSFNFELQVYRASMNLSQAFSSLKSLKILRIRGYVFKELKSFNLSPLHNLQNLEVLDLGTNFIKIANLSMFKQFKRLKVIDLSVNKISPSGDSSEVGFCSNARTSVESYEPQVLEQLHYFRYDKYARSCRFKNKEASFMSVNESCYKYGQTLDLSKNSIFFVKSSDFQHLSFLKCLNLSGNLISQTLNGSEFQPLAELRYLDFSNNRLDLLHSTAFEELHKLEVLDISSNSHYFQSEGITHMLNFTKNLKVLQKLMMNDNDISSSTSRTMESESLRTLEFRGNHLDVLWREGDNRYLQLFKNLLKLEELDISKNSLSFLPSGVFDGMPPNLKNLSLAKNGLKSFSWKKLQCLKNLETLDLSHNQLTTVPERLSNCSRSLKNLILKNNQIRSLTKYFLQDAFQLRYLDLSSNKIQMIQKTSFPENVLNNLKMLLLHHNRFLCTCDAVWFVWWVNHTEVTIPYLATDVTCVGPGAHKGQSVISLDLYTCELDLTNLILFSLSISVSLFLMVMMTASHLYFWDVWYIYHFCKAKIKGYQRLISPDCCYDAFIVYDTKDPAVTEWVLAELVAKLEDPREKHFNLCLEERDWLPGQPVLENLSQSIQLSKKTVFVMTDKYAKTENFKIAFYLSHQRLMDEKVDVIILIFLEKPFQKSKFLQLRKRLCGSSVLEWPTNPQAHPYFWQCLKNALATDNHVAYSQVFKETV
As to the kind of experiment: TLR7 inhibition reporter assay (HEK-Blue cells, SEAP reporter, gardiquimod stimulation). The conditions noted are these: HEK-Blue cells overexpressing human TLR7, SEAP reporter, gardiquimod 7.5 μM. In short, it runs like this:
(§1)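 After 22 h at 37 °C, SEAP secretion was measured from human TLR7-, TLR8- or TLR9-expressing HEK-Blue reporter cells given compound (0.05 nM–50 μM) 30 min before agonist: 7.5 μM gardiquimod, 15.9 μM R848 or 5 nM ODN2006 respectively. Percent inhibition referenced to agonist-plus-DMSO and known-inhibitor wells.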
On the technique in general: Reporter assays use an easily measured gene product as a stand-in for the process of interest.

Test [2] addresses T2, human TLR8 (Homo sapiens, UniProt Q9NR97).
T2 construct: host or cells: HEK-Blue cells (HEK293-derived reporter line)
T2 sequence (Q9NR97 27-1041): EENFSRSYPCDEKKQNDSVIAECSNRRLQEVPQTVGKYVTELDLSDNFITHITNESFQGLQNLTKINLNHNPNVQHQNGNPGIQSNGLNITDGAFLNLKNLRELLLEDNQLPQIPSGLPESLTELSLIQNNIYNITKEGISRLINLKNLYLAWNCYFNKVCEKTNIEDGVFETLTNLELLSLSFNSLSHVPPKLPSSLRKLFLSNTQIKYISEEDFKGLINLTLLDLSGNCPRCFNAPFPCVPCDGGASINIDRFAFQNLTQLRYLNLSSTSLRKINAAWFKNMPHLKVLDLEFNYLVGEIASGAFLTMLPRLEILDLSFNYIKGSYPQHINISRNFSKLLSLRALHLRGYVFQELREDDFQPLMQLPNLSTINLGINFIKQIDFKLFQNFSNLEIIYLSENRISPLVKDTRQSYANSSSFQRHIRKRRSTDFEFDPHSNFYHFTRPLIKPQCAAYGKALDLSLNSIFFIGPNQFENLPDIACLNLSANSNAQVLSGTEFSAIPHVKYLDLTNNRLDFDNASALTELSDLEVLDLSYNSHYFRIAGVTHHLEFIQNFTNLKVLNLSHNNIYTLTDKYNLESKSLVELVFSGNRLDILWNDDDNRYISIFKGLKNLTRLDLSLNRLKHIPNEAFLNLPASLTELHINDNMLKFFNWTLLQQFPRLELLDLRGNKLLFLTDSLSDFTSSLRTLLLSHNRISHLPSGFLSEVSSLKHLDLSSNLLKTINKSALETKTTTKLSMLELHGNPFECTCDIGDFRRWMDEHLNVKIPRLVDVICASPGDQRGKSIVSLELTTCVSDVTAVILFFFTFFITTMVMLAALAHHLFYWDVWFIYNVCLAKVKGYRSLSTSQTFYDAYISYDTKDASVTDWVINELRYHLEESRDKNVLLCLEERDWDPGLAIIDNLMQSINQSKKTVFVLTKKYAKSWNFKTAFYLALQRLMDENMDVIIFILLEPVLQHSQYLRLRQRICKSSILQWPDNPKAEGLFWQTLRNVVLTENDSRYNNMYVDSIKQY
The experiment in a line: TLR8 inhibition reporter assay (HEK-Blue cells, SEAP reporter, R848 stimulation). The conditions noted are these: HEK-Blue cells overexpressing human TLR8, SEAP reporter, R848 15.9 μM. In short, it runs like this: as §1

In test [3] the target is T3, human TLR9 (Homo sapiens, UniProt Q9NR96).
T3 construct: host or cells: HEK-Blue cells (HEK293-derived reporter line)
T3 sequence (Q9NR96 26-1032): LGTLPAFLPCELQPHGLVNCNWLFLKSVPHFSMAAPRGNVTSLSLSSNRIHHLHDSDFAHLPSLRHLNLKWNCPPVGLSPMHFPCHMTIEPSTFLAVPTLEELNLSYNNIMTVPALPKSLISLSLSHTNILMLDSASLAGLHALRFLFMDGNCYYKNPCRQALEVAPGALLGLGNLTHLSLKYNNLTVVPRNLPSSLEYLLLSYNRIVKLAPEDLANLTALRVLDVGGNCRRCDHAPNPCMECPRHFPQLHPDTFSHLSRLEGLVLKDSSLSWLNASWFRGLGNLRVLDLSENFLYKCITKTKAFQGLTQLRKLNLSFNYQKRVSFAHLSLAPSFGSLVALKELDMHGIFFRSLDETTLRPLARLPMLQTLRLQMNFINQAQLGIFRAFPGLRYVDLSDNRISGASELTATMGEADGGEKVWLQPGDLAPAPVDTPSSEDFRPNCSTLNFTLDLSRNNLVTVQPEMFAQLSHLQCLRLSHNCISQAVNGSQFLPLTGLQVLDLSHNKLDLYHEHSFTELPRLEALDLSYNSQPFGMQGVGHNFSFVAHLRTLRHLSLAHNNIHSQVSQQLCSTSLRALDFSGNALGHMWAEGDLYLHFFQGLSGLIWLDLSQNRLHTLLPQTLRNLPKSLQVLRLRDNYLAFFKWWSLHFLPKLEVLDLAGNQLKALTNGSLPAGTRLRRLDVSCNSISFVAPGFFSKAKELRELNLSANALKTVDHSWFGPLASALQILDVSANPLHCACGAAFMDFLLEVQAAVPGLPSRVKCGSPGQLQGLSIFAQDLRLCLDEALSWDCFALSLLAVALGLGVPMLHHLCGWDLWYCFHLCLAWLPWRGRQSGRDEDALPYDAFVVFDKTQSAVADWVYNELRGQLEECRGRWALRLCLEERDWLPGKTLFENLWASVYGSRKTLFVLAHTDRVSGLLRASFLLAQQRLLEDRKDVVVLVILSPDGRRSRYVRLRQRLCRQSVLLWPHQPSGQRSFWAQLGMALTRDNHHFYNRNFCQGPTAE
The experiment in a line: TLR9 inhibition reporter assay (HEK-Blue cells, SEAP reporter, ODN2006 stimulation). The settings on record: HEK-Blue cells overexpressing human TLR9, SEAP reporter, ODN2006 5 nM. The method in brief: as §1

Where only a bound is given, the exact number is not on record here.

Broadly, the IC50 is the concentration needed to halve the response being measured. High values mean weaker potency in that assay, low ones greater potency in that assay. With `Cc1cc(-c2[nH]c3ccc(C4CCN(C(=O)CN(C)C(C)C)CC4)cc3c2C(C)C)cn2nnnc12` [Example 480, 2-(isopropyl(methyl)amino)-1-(4-(3-isopropyl-2-(8-methyltetrazolo[1,5-a]pyridin-6-yl)-1H-indol-5-yl)piperidin-1-yl)ethan-1-one], the IC50 is less than 100 nM in test [1], less than 100 nM in test [2] and 1000 to 50000 nM in test [3].

For the compound `Cc1cc(-c2[nH]c3ccc(C4CCN(C(=O)CN(C)C(C)(C)C)CC4)cc3c2C(C)C)cn2nnnc12` [Example 481, 2-(tert-butyl(methyl)amino)-1-(4-(3-isopropyl-2-(8-methyltetrazolo[1,5-a]pyridin-6-yl)-1H-indol-5-yl)piperidin-1-yl)ethan-1-one], the figures for the IC50 in test [1], in test [2] and in test [3] were less than 100 nM, less than 100 nM and 1000 to 50000 nM, respectively.

Regarding `Cc1cc(-c2[nH]c3ccc(C4CCN(C(=O)CN5CCC(F)(F)CC5)CC4)cc3c2C(C)C)cn2nnnc12` [Example 482, 2-(4,4-difluoropiperidin-1-yl)-1-(4-(3-isopropyl-2-(8-methyltetrazolo[1,5-a]pyridin-6-yl)-1H-indol-5-yl)piperidin-1-yl)ethan-1-one], the half-maximal inhibitory concentration (IC50) is less than 100 nM in test [1], 100 to 1000 nM in test [2] and more than 50000 nM in test [3].

For `Cc1cc(-c2[nH]c3ccc(C4CCN(C(=O)CN(C)C5CC5)CC4)cc3c2C(C)C)cn2nnnc12` [Example 483, 2-(cyclopropyl(methyl)amino)-1-(4-(3-isopropyl-2-(8-methyltetrazolo[1,5-a]pyridin-6-yl)-1H-indol-5-yl)piperidin-1-yl)ethan-1-one], the IC50 in test [1] is less than 100 nM; in test [2], less than 100 nM; in test [3], 1000 to 50000 nM.

As for `Cc1cc(-c2[nH]c3ccc(C4CCN(C(=O)CN5C[C@H]6CC[C@@H](C5)O6)CC4)cc3c2C(C)C)cn2nnnc12` [Example 484, 2-((1R,5S)-8-oxa-3-azabicyclo[3.2.1]octan-3-yl)-1-(4-(3-isopropyl-2-(8-methyltetrazolo[1,5-a]pyridin-6-yl)-1H-indol-5-yl)piperidin-1-yl)ethan-1-one], the IC50 in test [1] was less than 100 nM; in test [2] it was less than 100 nM; in test [3], 1000 to 50000 nM.

As for `Cc1cc(-c2[nH]c3ccc(C4CCN(C(=O)CN5CCS(=O)(=O)CC5)CC4)cc3c2C(C)C)cn2nnnc12` [Example 485, 2-(1,1-dioxidothiomorpholino)-1-(4-(3-isopropyl-2-(8-methyltetrazolo[1,5-a]pyridin-6-yl)-1H-indol-5-yl)piperidin-1-yl)ethan-1-one], the IC50 in test [1] was less than 100 nM; in test [2], less than 100 nM; in test [3] it was more than 50000 nM.

For `Cc1cc2nnnn2cc1-c1[nH]c2ccc(C3CCN(C(=O)CN(C)C)CC3)cc2c1C(C)C` [Example 486, 2-(dimethylamino)-1-(4-(3-isopropyl-2-(7-methyltetrazolo[1,5-a]pyridin-6-yl)-1H-indol-5-yl)piperidin-1-yl)ethan-1-one], the results for the IC50 in test [1], in test [2] and in test [3] were less than 100 nM, 100 to 1000 nM and 1000 to 50000 nM, respectively.

`Cc1nnn2ccc(-c3[nH]c4ccc(C5CCN(C(=O)CN(C)C)CC5)cc4c3C(C)C)cc12` [Example 487, 2-(dimethylamino)-1-(4-(3-isopropyl-2-(3-methyl-[1,2,3]triazolo[1,5-a]pyridin-5-yl)-1H-indol-5-yl)piperidin-1-yl)ethan-1-one]: the half-maximal inhibitory concentration (IC50) in test [1] is less than 100 nM; in test [2], less than 100 nM; in test [3], 1000 to 50000 nM.

Consider `Cc1cc(-c2[nH]c3ccc(C4CCN(C(=O)CN(C)C)CC4)cc3c2C(C)C)cc2cnnn12` [Example 488, 2-(dimethylamino)-1-(4-(3-isopropyl-2-(7-methyl-[1,2,3]triazolo[1,5-a]pyridin-5-yl)-1H-indol-5-yl)piperidin-1-yl)ethan-1-one], for which the values for the half-inhibitory concentration (IC50) in test [1], in test [2] and in test [3] were less than 100 nM, less than 100 nM and 1000 to 50000 nM, respectively.

On to `Cc1cc(-c2[nH]c3ccc(C4CCN(C(=O)CN(C)C)CC4)cc3c2C(C)C)cc2c1oc(=O)n2C` [Example 489, 5-(5-(1-(dimethylglycyl)piperidin-4-yl)-3-isopropyl-1H-indol-2-yl)-3,7-dimethylbenzo[d]oxazol-2(3H)-one], for which the IC50 is less than 100 nM in test [1], 100 to 1000 nM in test [2] and 1000 to 50000 nM in test [3].

In the case of `Cc1cc(-c2[nH]c3ccc(C4CCN(C(=O)CN(C)C)CC4)cc3c2C(C)C)cc2[nH]c(=O)oc12` [Example 490, 5-(5-(1-(dimethylglycyl)piperidin-4-yl)-3-isopropyl-1H-indol-2-yl)-7-methylbenzo[d]oxazol-2(3H)-one], the IC50 lay within 100 to 1000 nM in test [1], 100 to 1000 nM in test [2] and 1000 to 50000 nM in test [3].

For `Cc1nc2cc(-c3[nH]c4ccc(C5CCN(C(=O)CN(C)C)CC5)cc4c3C(C)C)cc(C)c2o1` [Example 491, 2-(dimethylamino)-1-(4-(2-(2,7-dimethylbenzo[d]oxazol-5-yl)-3-isopropyl-1H-indol-5-yl)piperidin-1-yl)ethan-1-one], the IC50 in test [1] was in the range of 100 to 1000 nM; in test [2], 1000 to 50000 nM; in test [3] it was 1000 to 50000 nM.
